Reference: patent US9399623B2, “Quinoline derivatives and their use in neurodegenerative diseases” (Merck Patent GmbH, priority 2014, dated 2016)

Assays:
P2X7 [1] = target: T1, P2X7 (Homo sapiens, UniProt Q99572); test: Pore permeation assay (YO PRO dye uptake, BzATP-induced); assay type: cell-based; set-up: expressed in transfected cells; host or cells: HEK293; conditions: HEK293 transfected with human P2X7 receptor; YO PRO dye 1 uM, BzATP 10 uM; read-out: hP2X7 IC50
T1 sequence (Q99572 1-595): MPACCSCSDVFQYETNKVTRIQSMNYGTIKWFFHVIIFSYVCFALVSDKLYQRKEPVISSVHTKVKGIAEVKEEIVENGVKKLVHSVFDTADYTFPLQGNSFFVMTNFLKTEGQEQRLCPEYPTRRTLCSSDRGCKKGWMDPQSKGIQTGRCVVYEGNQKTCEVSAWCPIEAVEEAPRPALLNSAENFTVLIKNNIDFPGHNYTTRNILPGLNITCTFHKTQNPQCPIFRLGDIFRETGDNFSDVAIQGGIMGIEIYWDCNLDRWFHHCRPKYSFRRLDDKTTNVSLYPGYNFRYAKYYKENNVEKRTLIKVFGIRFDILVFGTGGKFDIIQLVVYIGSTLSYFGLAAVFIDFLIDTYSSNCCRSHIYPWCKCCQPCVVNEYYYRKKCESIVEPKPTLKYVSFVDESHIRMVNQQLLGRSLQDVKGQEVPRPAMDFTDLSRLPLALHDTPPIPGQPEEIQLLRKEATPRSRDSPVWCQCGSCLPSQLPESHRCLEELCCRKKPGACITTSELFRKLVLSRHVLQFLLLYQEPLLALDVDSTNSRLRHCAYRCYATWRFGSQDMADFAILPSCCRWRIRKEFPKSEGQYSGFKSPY
Protocol: Agonist-induced pore formation was determined by measuring cellular uptake of YO PRO fluorescence dye in HEK293 transfected with human P2X7 receptor. A HEK293 cell over expressing human P2X7 was harvested using HQTase reagent to detach the cells from T75 cm flask. The harvested cells are centrifuged @ 1200 rpm for 5 min at room temperature. The viability of cells was determined by Trypan blue dye and the cells are plated @ 10,000 cell/well in 50 ul volume in a 384 W BD Poly lysine coated plate and incubated overnight at 37 C. After overnight incubation, the culture medium was replaced with 35 ul/well assay buffer (5 mM KCl, 0.1 mM CaCl2, 5 mM Glucose, 10 mM HEPES buffer pH7.4 containing 125 mM NaCl. The serial dilution of compounds was performed using Bravo liquid handling instrument and the compounds were added using Bravo to the cell assay plate starting at 2.5 uM with three dilutions for 10 points. The positive control inhibitor compound was added to column 23. The plate was shaken slowly on a plate shaker for 10 seconds. The cells were incubated with the compound for 20 minutes at room temperature. After the incubation period, YO PRO dye (1 uM) along with BzATP (10 uM) were added to cells at 10 ul/well. The plate was centrifuged at 1000 rpm for 5 seconds and incubated at room temperature for 30 minutes. The uptake of YO PRO dye into the cells was measured using Envision Fluorescence plate reader instrument (Perkin Elmer).

P2X7 [2] = target: T1, P2X7; test: IL-1β release assay in THP-1 cells (sandwich ELISA); assay type: cell-based; set-up: release of mature IL-1β in the culture medium of THP-1 cells; endogenous in cells; host or cells: THP-1 cells (PMA-differentiated, LPS-primed); conditions: PMA, LPS primed, stimulated with 0.8 mM BzATP, mature IL-1β release, read-out: hTHP-1/IL-ib IC50
Protocol: The activation of P2X7 by ATP leads to a fast transient activation of cells resulting in influx of Ca^2+ followed by conversion of pro-IL-1β to active IL-1β. The functional activity of P2X7 compounds was measured by the release of mature IL-1β in the culture medium of THP-1 cells, detected by sandwich ELISA. Cells were maintained in complete growth medium (RPMI 1640+10% HI-FCS+2 mM L-glutamine+1×PS). […] THP-1 cells were harvested from the flask in 50 ml by centrifugation for 3 min at 100 g. The cells were resuspended to 2×10^5 cells/ml in medium supplemented with 0.5 μM PMA and incubated. The cells were washed and resuspended to 1.5×10^5 cells/ml in medium complemented with 10 ng/ml LPS, and the cells were primed for 4 h at 37° C., 5% CO2. After addition of 20 μL of prediluted test compounds, blank, standard and control reagents, cells were incubated for a further 20 min at 37° C. and stimulated with 0.8 mM BzATP for 30 minutes. The cells were centrifuged, supernatant was collected and the presence of mature IL-1β was detected using Dual human IL-1b kit following manufacturer's instruction. The tetrahydrobenzodiazepine analogs effectively modulated the activity of P2X7 in the cells as measured by the levels of pro-inflammatory cytokine IL-1β, which is released by the activation of P2X7 receptor.

IC50 (P2X7 [1]) [nM] | IC50 (P2X7 [2]) [nM] | Structure (SMILES)
< 10 | 10 to 100 | C[C@@H]1CCC[C@](O)(CNC(=O)c2c(Cl)ccc3nc(N4CCC(F)(F)C4)ccc23)C1 [Compound 10, 6-Chloro-2-(3,3-difluoropyrrolidin-1-yl)-quinoline-5-carboxylic acid ((1R,3R)-1-hydroxy-3-methyl-cyclohexylmethyl)-amide]
< 10 | 101 to 500 | O=C(NCC1CCC(F)(F)CC1)c1c(Cl)ccc2nc(N3CC[C@H](CCO)C3)ccc12 [Compound 11, 6-Chloro-2-((R)-3-hydroxyethyl-pyrrolidin-1-yl)-quinoline-5-carboxylic acid (4,4-difluoro-cyclohexylmethyl)-amide]
< 10 | 101 to 500 | O=C(NCC1CCC(F)(F)CC1)c1c(Cl)ccc2nc(N3CC[C@@H](CO)C3)ccc12 [Compound 12, 6-Chloro-2-((R)-3-hydroxymethyl-pyrrolidin-1-yl)-quinoline-5-carboxylic acid (4,4-difluoro-cyclohexylmethyl)-amide]
< 10 | < 10 | C[C@@H]1CCC[C@](O)(CNC(=O)c2c(Cl)ccc3nc(N4CCC(N5CCCC5)C4)ccc23)C1 (stereo partly drawn) [Compound 13, 6-Chloro-2-(3-pyrrolidinyl-pyrrolidin-1-yl)-quinoline-5-carboxylic acid ((1R,3R)-1-hydroxy-3-methyl-cyclohexylmethyl)-amide]
< 10 | 10 to 100 | CNC1CCN(c2ccc3c(C(=O)NCC4CCC(F)(F)CC4)c(Cl)ccc3n2)C1 (centres unmarked) [Compound 17, 6-Chloro-2-(3-methylamino-pyrrolidin-1-yl)-quinoline-5-carboxylic acid (4,4-difluoro-cyclohexylmethyl)-amide]
< 10 | 10 to 100 | NC1CCN(c2ccc3c(C(=O)NCC4CCC(F)(F)CC4)c(Cl)ccc3n2)C1 (centres unmarked) [Compound 18]
< 10 | 10 to 100 | O=C(NCC1CCC(F)(F)CC1)c1c(Cl)ccc2nc(C#CCO)ccc12 [Compound 19, 6-Chloro-2-(3-hydroxy-prop-1-ynyl)-quinoline-5-carboxylic acid (4,4-difluoro-cyclo hexylmethyl)-amide]
10 to 100 | 10 to 100 | CN(C)[C@H]1CCN(c2ccc3c(C(=O)NCC4(O)CCC(F)(F)CC4)c(Cl)ccc3n2)C1 [Compound 20, 6-Chloro-2-((S)-3-dimethylamino-pyrrolidin-1-yl)-quinoline-5-carboxylic acid (4,4-difluoro-1-hydroxy-cyclohexylmethyl)-amide]
10 to 100 | 10 to 100 | O=C(NCC1CCC(F)(F)CC1)c1c(Cl)ccc2nc(N3CCC(NCCO)C3)ccc12 (centres unmarked) [Compound 21]
10 to 100 | 10 to 100 | CN(C)[C@@H]1CCN(c2ccc3c(C(=O)NCC4(O)CCC(F)(F)CC4)c(Cl)ccc3n2)C1 [Compound 23, 6-Chloro-2-((R)-3-dimethylamino-pyrrolidin-1-yl)-quinoline-5-carboxylic acid (4,4-difluoro-1-hydroxy-cyclohexylmethyl)-amide]
10 to 100 | 10 to 100 | O=C(NC[C@@]1(O)CCCC(F)(F)C1)c1c(Cl)ccc2nc(N3CCC(F)(F)C3)ccc12 [Compound 24, 6-Chloro-2-(3,3-difluoropyrrolidin-1-yl)-quinoline-5-carboxylic acid ((R)-3,3-difluoro-1-hydroxycyclohexylmethyl)-amide]
10 to 100 | 10 to 100 | O=C(NCC1(O)CCCCCC1)c1c(Cl)ccc2nc(N3CCCC3)ccc12 [Compound 25]
10 to 100 | 101 to 500 | O=C(NCC1CCC(F)(F)CC1)c1c(Cl)ccc2nc(N3CC[C@@H](CCO)C3)ccc12 [Compound 26, 6-Chloro-2-((S)-3-hydroxyethyl-pyrrolidin-1-yl)-quinoline-5-carboxylic acid (4,4-difluoro-cyclohexylmethyl)-amide]
10 to 100 | 10 to 100 | O=C(NCC1(O)CCC(F)(F)CC1)c1c(Cl)ccc2nc(N3CCC(N4CCCC4)C3)ccc12 (centres unmarked) [Compound 27, 6-Chloro-2-(3-pyrrolidinyl-pyrrolidin-1-yl)-quinoline-5-carboxylic acid (4,4-difluoro-1-hydroxy-cyclohexylmethyl)-amide]
10 to 100 | 10 to 100 | CN(C)C1CCN(c2ccc3c(C(=O)NCC4(O)CCC(F)(F)CC4)c(Cl)ccc3n2)C1 (centres unmarked) [Compound 28, 6-Chloro-2-(3-dimethylamino-pyrrolidin-1-yl)-quinoline-5-carboxylic acid (4,4-difluoro-1-hydroxy-cyclohexylmethyl)-amide]
10 to 100 | 10 to 100 | O=C(NCC1CCC(F)(F)CC1)c1c(Cl)ccc2nc(N3CC[C@H](CO)C3)ccc12 [Compound 29, 6-Chloro-2-((S)-3-hydroxymethyl-pyrrolidin-1-yl)-quinoline-5-carboxylic acid (4,4-difluoro-cyclohexylmethyl)-amide]
10 to 100 | 10 to 100 | O=C(NCC1CCC(F)(F)CC1)c1c(Cl)ccc2nc(N3CCC(N4CCCC4)C3)ccc12 (centres unmarked) [Compound 30, 6-Chloro-2-(3-pyrrolidinyl-pyrrolidin-1-yl)-quinoline-5-carboxylic acid (4,4-difluoro-cyclohexylmethyl)-amide]
10 to 100 | 101 to 500 | O=C(NCC1CCC(F)(F)CC1)c1c(Cl)ccc2nc(C3=CCOCC3)ccc12 [Compound 31, 6-Chloro-2-(3,6-dihydro-2H-pyran-4-yl)-quinoline-5-carboxylic acid (4,4-difluoro-cyclo hexyl methyl)-amide]
10 to 100 | 10 to 100 | NC1CCN(c2ccc3c(C(=O)NCC4(O)CCCC(F)(F)C4)c(Cl)ccc3n2)C1 (centres unmarked) [Compound 32, 2-(3-Aminopyrrolidin-1-yl)-6-chloro-quinoline-5-carboxylic acid (3,3-difluoro-1-hydroxycyclohexylmethyl)-amide]
10 to 100 | 101 to 500 | O=C(NCC1CCC(F)(F)CC1)c1c(Cl)ccc2nc(N3CC[C@@H](F)C3)ccc12 [Compound 33, 6-Chloro-2-((R)-3-fluoropyrrolidin-1-yl)-quinoline-5-carboxylic acid (4,4-difluoro-cyclohexylmethyl)-amide]
10 to 100 | 10 to 100 | O=C(NCC1CCCC(F)(F)C1)c1c(Cl)ccc2nc(N3CCC(N4CCCC4)C3)ccc12 (centres unmarked) [Compound 34, 6-Chloro-2-(3-pyrrolidinyl-pyrrolidin-1-yl)-quinoline-5-carboxylic acid (3,3-difluoro-cyclohexylmethyl)-amide]
10 to 100 | 10 to 100 | O=C(NCC1CCCC(F)(F)C1)c1c(Cl)ccc2nc(N3CCC(CO)C3)ccc12 (centres unmarked) [Compound 35, 6-Chloro-2-(3-hydroxymethylpyrrolidin-1-yl)-quinoline-5-carboxylic acid (3,3-difluoro-cyclohexylmethyl)-amide]
